The numbers were not newly measured in patent US20250134875A1, “FORMULATIONS OF ALK-5 KINASE INHIBITORS AND USES THEREOF” (Thirona Bio, Inc., priority 2023, published 2025), which cites them from elsewhere.

Data set [1] relates to mouse fibroblasts and fat precursor cells. The conditions noted are these: cited from earlier work.
In a further data set the test system is TGF-β. The conditions noted are these: cited from earlier work.
A further data set has as its target T1, TNF (Homo sapiens, UniProt P01375).
T1 construct: host or cells: Dupuytren's nodules of patients (in vivo, endogenous)
As to conditions: cited from earlier work.

The test system of a further data set is rat PD models. The conditions noted are these: cited from earlier work.
Data set [2] deals with fibroblasts derived from human PD plaque. As to conditions: cited from earlier work.
For data set [3], the system named is TGF-β-induced expression of ACTA2, Col1a1 and Col3a1. As to conditions: 3D culture model of DC-specimens; cited from earlier work.
The test system of another data set is mouse skin. As to conditions: cited from earlier work.
Data set [4] has as its system human outer root sheath cells. The conditions noted are these: cited from earlier work.
In the next data set the test system is A549 cells. As to conditions: cited from earlier work.

T1 sequence (P01375 77-233 limits assumed): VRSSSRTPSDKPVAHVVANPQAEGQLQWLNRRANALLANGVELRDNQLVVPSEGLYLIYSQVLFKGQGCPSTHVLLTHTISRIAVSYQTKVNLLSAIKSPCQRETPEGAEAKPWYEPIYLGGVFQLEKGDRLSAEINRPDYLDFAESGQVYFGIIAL

Consider `Cc1cccc(-c2nn(C(=S)Nc3ccccc3)cc2-c2ccnc3ccccc23)n1` [Formulation A83-01], for which the Brown fat adipogenesis entry in [1] is listed as “induced brown fat adipogenesis”.

In the case of `Cc1cccc(-c2nn3c(c2-c2ccnc4ccc(C(N)=O)cc24)CCC3)n1` [LY2157299], the Brown fat adipogenesis entry in data set [1] is listed as “induced brown fat adipogenesis”.

Turning to “fresolimumab: TGF-β neutralizing antibody which targets all three TGF-β isoforms”, in the data set with TGF-β (systemic sclerosis patients (N=15), 1 mg/kg twice or 5 mg/kg once, p=0.0002 within 3 weeks), the “Clinical skin disease (fibrosis), modified Rodnan skin score (MRSS)” value was “dramatically reversed”. Besides, in the data set with TGF-β (systemic sclerosis patients), the “Pro-fibrotic TGF-β gene expression profiles in the skin” value is listed as “decreased” and the Systemic side effects result was “significant systemic side effects, notably bleeding”.

With adalimumab, the Phenotype of myofibroblasts result on TNF (Phase 2a trial, intranodular) is given as “downregulated the phenotype of myofibroblasts”. Also, on TNF (Phase 2b trial), the “Nodule harness and size by ultrasound” value was “decreased nodule harness and size”.

Regarding `Cc1cccc(-c2[nH]c(Cc3cccc(C(N)=O)c3)nc2-c2ccc3nccnc3c2)n1` [IN-1130], the Curvature and fibrosis entry with rat PD models is “improved curvature and fibrosis”. For the same molecule, the “TGF-β1-induced production of PAI-1, fibronectin, collagen 1 and collagen 4” value in data set [2] is “significantly reduced”.

As for `NC(=O)c1ccc(-c2nc(-c3ccc4c(c3)OCO4)c(-c3ccccn3)[nH]2)cc1` [SB-431542], the “TGF-β-induced expression of ACTA2, Col1a1 and Col3a1” value in data set [3] is on record as “suppressed”. Also, the Brown fat adipogenesis entry in data set [1] was “induced brown fat adipogenesis”.

On to `Cc1csc(-c2[nH]cnc2-c2ccc3ncsc3c2)n1` [TP0427736], for which the “Average hair follicle length during transition from late anagen to catagen phase” value in the data set with mouse skin (repeated topical application) was “suppressed the shortening”. Also, the “Smad2 phosphorylation in mouse skin” value in the data set on mouse skin (topical application) is given as “significantly decreased”. In addition, the “Growth inhibition of human outer root sheath cells” value in data set [4] is reported as “decreased the growth inhibition”. Further, the Smad2/3 phosphorylation entry in the data set with A549 cells is recorded as “inhibited”.

With `COc1ccc(/C=C/C(=O)Nc2ccccc2C(=O)O)cc1OC` [Tanilast], the Brown fat adipogenesis result in data set [1] is recorded as “induced brown fat adipogenesis”.
